# Experimental data: patent publication US10441566B2, “Use of butylidenephthalide” (EVERFRONT BIOTECH INC., priority 2016, dated 2019)
# Assays:
# Format in all cases: cell-based
# [1] = system: Twist gene; assay: Q-PCR expression of EMT marker gene Twist in fBMFs; settings: fBMF-1 and fBMF-2, BP 0, 25, or 50 μg/mL, 48 hours, with the increment in concentration, FIG. 2
# Description: (§1) Two groups of buccal mucosal fibroblasts obtained from normal oral buccal mucosa (hereinafter abbreviated as “BMF-1” and “BMF-2”; or collectively called “BMFs”), and two groups of fibrotic buccal mucosal fibroblasts obtained from fibrotic oral buccal mucosa (hereinafter abbreviated as “fBMF-1” and “fBMF-2”; or collectively called “fBMFs”) were respectively subjected to the following procedures: seeding the cells into a 24-well plate by a concentration of 2×10^4 cells/well to cultivate the cells to reach a 80% confluence, and then respectively treating the cells with different concentrations (0, 12.5, 25, 50, 100, or 200 μg/mL) of butylidenephthalide (BP) for 48 hours. […]
# (§2) It is known that during the process of epithelial-mesenchymal transition (EMT), the expressions of Twist gene, Snail gene, and ZEB1 gene in the cells will increase, and thus, these genes are known as the marker genes of EMT. In this experiment, quantitative real-time polymerase chain reaction (Q-PCR) was conducted to investigate whether butylidenephthalide (BP) can affect the expressions of Twist gene, Snail gene, and ZEB1 gene in oral submucosal tissue cells. […]
# [2] = system: buccal mucosal fibroblasts (BMFs; BMF-1, BMF-2); assay: MTT cytotoxicity evaluation, relative viability of buccal mucosal fibroblasts; settings: BP at a concentration of no more than 50 μg/mL, 48 hours, FIG. 1
# Description: as §1
# [3] = system: fibrotic buccal mucosal fibroblasts (fBMFs); assay: Collagen gel contraction assay; settings: fBMFs in collagen gel, BP 0, 25, or 50 μg/mL, 48 hours, with the increment in concentration, FIGS. 5A and 5B
# Protocol: The BMF-1, BMF-2, fBMF-1, and fBMF-2 provided by [Preparation example A] were respectively dissolved in 0.5 mL of 2 mg/mL collagen solution (purchased from Sigma-Aldrich), and the mixtures thus obtained were moved into a 24-well plate. Then, the 24-well plate was placed in an incubator at […] and 5% CO2 for 2 hours to coagulate the collagen gels. The gels thus obtained were respectively called “BMFs group”, and “fBMFs group” gels. Thereafter, the coagulated gels were disengaged from the culture plate, and 0.5 mL of a medium containing different concentrations (0, 25, or 50 μg/mL) of butylidenephthalide (BP) was added thereinto to incubate with the gels for 48 hours. The contraction of gel in each group were observed and photographed. Finally, the relative gel area (%) of each “fBMFs group” was calculated by using the image-analyzed software, ImageJ (National Institutes of Health, USA) and using the results of “BMFs group” not being treated with butylidenephthalide (BP) as a basis.
# [4] = system: fibrotic buccal mucosal fibroblasts (fBMFs); assay: Transwell cell migration assay; settings: BP 0, 25, or 50 μg/mL, 24 hours migration, FIGS. 3A and 3B
# Protocol: In this experiment, a transwell cell migration assay system (Transwell® system; purchased from Corning company, UK) and a polycarbonate membrane with a pore size of 8 μm (purchased from Corning company, UK) were used to further investigate whether butylidenephthalide (BP) can inhibit the abilities of oral submucosal tissue cells to crawl and invade.
# First, the cell medium containing 10% FBS (fetal bovine serum) was added into the lower chamber, and an apparatus of polycarbonate membrane was placed on the bottom of a cell culture plate, i.e., upper chamber. On the other hand, the BMF-1, BMF-2, fBMF-1, and fBMF-2 provided by [Preparation example A] (2×10^4 cells/group) were evenly mixed with a 250 μL serum-free medium that is externally added with butylidenephthalide (BP) by a concentration of 0, 25, or 50 μg/mL. Then, the mixtures thus obtained were respectively added into the upper chambers. Thereafter, the whole transwell cell migration assay system was placed in an incubator to induce cell migration for 24 hours. […] Then, the polycarbonate membrane were fixed with 4% paraformaldehyde for 10 minutes and stained with 0.1% crystal violet. […] The cell numbers on the membrane were calculated into the relative cell migration ability (%) by using the results of BMFs not treated with butylidenephthalide (BP) as a basis.
# [5] = system: Snail gene; assay: Q-PCR expression of EMT marker gene Snail in fBMFs; settings: fBMF-1 and fBMF-2, BP 0, 25, or 50 μg/mL, 48 hours, with the increment in concentration, FIG. 2
# Description: as §1, §2
# [6] = system: S100A4 gene; assay: Q-PCR expression of myofibroblast marker gene S100A4 in fBMFs; settings: fBMF-1 and fBMF-2, BP 0, 25, or 50 μg/mL, 48 hours, with the increment in concentration, FIG. 4
# Description: as §1
# (§3) It is known that during the process of the fibrosis of tissue, the tissue cells would differentiate and become myofibroblasts, wherein the α-SMA gene, Col1a1 gene, and S100A4 gene are the maker genes of myofibroblasts. Thus, in this experiment, a quantitative real-time polymerase chain reaction (Q-PCR) was conducted to investigate whether butylidenephthalide (BP) can inhibit the expressions of α-SMA gene, Col1a1 gene, and S100A4 gene in oral submucosal tissue cells. […]
# [7] = system: fibrotic buccal mucosal fibroblasts (fBMFs; fBMF-1, fBMF-2); assay: MTT cytotoxicity evaluation, relative viability of fibrotic buccal mucosal fibroblasts; settings: BP at a concentration of no more than 50 μg/mL, 48 hours, FIG. 1
# Description: as §1
# [8] = system: ZEB1 gene; assay: Q-PCR expression of EMT marker gene ZEB1 in fBMFs; settings: fBMF-1 and fBMF-2, BP 0, 25, or 50 μg/mL, 48 hours, with the increment in concentration, FIG. 2
# Description: as §1, §2
# [9] = system: α-SMA gene; assay: Q-PCR expression of myofibroblast marker gene α-SMA in fBMFs; settings: fBMF-1 and fBMF-2, BP 0, 25, or 50 μg/mL, 48 hours, with the increment in concentration, FIG. 4
# Description: as §1, §3
# [10] = system: Col1a1 gene; assay: Q-PCR expression of myofibroblast marker gene Col1a1 in fBMFs; settings: fBMF-1 and fBMF-2, BP 0, 25, or 50 μg/mL, 48 hours, with the increment in concentration, FIG. 4
# Description: as §1, §3
structure (smiles),measurement,setting,value
CCCC=C1OC(=O)c2ccccc21 [butylidenephthalide],expression of Twist gene,[1],significantly decreased
same,growth (relative viability) of BMFs,[2],will not be affected
same,gel contraction (relative gel area),[3],significantly mitigate
same,cells which migrated from the upper chamber to the lower chamber (relative migration ability),[4],decrease with the increment in the concentration
same,expression of Snail gene,[5],significantly decreased
same,expression of S100A4 gene,[6],significantly decreased
same,growth (relative viability) of fBMFs,[7],will not be affected
same,expression of ZEB1 gene,[8],significantly decreased
same,expression of α-SMA gene,[9],significantly decreased
same,expression of Col1a1 gene,[10],significantly decreased
